One assay concerns the target P300 (Homo sapiens, UniProt Q09472). The assay can be described thus: Immunoblotting of P300 protein levels in LNCaP or 22RV1 cells. Also on record: LNCaP or 22RV1 cells that express CBP/P300 proteins were treated with GNE-781 or the bivalent compounds; endogenous in cells; host or cells: LNCaP (clone FGC) or 22RV1 cells. As to conditions: read-out: Degradation (10 nM). It is filed as cell-based. In a few lines: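 P300/CBP levels quantified by chemiluminescent immunoblot band densitometry, normalized against tubulin or vinculin loading controls. Lysates came from LNCaP or 22RV1 cells exposed to compounds or DMSO vehicle for indicated times.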
For orientation: In western blotting, separated proteins are transferred to a membrane and probed.

For the next assay, the system named is LNCaP cells. The assay is described as follows: LNCaP cell viability assay (CellTiter-Glo). It is filed as cell-based. The following applies: Homo sapiens, 72 h; LNCaP prostate cancer cell viability inhibition, 3 days, CellTiter-Glo (Table 3). In a few lines:
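Three-day treatment of LNCaP cells (5000 per well) across a 12-point, 3-fold dilution series starting at 10 μM. ATP luminescence (CellTiter-Glo) relative to untreated controls gave dose-response curves fitted nonlinearly for IC50.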
On the technique in general: Cellular ATP, detected with luciferase, serves as a proxy for viable cell number.

The mark [1] stands for this setting: percentage of inhibition of p300 at 10 nM (Table 3).

pIC50: −log10 of the molar value. Where two headings read alike, the source gives them in different places.

P300, sequence (Q09472 whole entry): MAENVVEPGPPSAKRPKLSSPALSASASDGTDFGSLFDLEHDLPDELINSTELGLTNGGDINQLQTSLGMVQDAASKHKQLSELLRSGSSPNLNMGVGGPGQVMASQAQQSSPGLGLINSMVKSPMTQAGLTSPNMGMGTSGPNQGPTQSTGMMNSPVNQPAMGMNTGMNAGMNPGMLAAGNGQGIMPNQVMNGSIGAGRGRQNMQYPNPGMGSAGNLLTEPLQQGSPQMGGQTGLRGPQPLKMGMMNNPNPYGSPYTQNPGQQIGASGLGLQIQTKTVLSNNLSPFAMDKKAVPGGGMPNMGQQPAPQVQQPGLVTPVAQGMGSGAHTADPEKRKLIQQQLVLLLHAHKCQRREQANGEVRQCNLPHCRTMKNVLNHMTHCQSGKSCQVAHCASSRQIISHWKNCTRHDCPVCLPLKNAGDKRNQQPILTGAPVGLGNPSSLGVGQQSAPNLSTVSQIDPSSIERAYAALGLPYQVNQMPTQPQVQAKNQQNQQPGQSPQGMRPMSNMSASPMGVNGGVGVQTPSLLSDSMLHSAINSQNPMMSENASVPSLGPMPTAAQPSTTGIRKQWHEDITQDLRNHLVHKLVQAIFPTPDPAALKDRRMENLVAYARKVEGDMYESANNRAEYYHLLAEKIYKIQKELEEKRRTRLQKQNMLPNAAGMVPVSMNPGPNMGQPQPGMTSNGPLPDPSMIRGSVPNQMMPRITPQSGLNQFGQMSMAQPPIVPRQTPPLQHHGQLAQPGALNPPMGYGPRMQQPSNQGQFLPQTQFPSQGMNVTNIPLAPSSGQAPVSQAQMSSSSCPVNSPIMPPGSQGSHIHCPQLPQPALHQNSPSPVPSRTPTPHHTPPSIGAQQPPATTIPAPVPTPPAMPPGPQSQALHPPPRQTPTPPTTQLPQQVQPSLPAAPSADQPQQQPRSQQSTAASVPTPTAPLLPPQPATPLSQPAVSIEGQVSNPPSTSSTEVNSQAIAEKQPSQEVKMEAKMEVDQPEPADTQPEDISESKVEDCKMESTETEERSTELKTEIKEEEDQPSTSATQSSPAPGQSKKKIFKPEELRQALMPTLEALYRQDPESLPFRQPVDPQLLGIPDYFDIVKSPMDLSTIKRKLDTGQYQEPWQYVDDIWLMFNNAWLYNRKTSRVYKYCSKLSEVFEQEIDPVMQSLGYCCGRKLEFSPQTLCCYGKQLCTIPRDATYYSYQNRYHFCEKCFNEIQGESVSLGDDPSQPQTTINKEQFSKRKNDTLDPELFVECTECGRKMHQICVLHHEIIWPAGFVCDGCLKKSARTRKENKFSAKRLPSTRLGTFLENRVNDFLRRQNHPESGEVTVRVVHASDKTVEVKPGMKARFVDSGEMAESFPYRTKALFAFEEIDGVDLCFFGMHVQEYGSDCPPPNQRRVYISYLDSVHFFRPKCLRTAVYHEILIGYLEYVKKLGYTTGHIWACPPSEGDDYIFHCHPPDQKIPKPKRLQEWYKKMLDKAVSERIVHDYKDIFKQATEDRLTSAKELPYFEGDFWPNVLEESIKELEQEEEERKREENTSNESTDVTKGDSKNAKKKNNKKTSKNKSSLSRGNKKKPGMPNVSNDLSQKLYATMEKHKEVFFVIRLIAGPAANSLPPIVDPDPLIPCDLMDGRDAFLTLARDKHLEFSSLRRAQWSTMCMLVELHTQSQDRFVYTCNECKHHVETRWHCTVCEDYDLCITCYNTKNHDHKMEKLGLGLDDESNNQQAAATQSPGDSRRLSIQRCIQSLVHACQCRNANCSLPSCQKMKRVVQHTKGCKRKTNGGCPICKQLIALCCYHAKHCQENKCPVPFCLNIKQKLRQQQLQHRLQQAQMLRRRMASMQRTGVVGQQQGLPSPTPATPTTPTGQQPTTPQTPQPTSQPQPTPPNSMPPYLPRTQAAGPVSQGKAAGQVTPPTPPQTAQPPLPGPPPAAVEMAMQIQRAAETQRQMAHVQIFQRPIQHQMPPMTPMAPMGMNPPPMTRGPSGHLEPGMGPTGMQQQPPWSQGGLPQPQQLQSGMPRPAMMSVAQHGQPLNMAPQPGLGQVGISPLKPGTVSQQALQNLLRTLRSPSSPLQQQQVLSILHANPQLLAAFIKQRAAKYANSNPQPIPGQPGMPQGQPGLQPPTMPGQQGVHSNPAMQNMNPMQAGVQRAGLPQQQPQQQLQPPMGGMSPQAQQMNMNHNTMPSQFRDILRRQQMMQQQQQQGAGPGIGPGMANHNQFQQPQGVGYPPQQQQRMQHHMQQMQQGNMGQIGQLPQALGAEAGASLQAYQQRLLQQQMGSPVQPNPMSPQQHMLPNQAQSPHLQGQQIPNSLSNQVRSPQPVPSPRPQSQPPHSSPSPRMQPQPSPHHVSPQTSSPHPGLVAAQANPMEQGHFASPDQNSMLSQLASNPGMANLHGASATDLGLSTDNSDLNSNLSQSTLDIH

In the case of `CNC(=O)N1CCc2c(c(N3CCCc4cc(-c5cnn(C)c5)c(C(F)F)cc43)nn2C2CCN(C(=O)CCCCNc3cccc4c3n(C)c(=O)n4C3CCC(=O)NC3=O)CC2)C1` (stereo not drawn) [P-127, 3-(7-(Difluoromethyl)-6-(1-methyl-1H-pyrazol-4-yl)-3,4-dihydroquinolin-1(2H)-yl)-1-(1-(5-((1-(2,6-dioxopiperidin-3-yl)-3-methyl-2-oxo-2,3-dihydro-1H-benzo[d]imidazol-4-yl)amino)pentanoyl)piperidin-4-yl)-N-methyl-1,4,6,7-tetrahydro-5H-pyrazolo[4,3-c]pyridine-5-carboxamide], at P300 (setting [1]), the inhibition at 0.01 µM was in the range of 20 to 50%. The compound also had a pIC50 in the assay on LNCaP cells of 6.40.

Turning to `CC(=O)N1CCc2c(c(N3CCCc4cc(-c5cnn(C)c5)c(C(F)F)cc43)nn2C2CCN(C(=O)CCCCNc3cccc4c3n(C)c(=O)n4C3CCC(=O)NC3=O)CC2)C1` (stereo not drawn) [P-128, 3-(4-((5-(4-(5-Acetyl-3-(7-(difluoromethyl)-6-(1-methyl-1H-pyrazol-4-yl)-3,4-dihydroquinolin-1(2H)-yl)-4,5,6,7-tetrahydro-1H-pyrazolo[4,3-c]pyridin-1-yl)piperidin-1-yl)-5-oxopentyl)amino)-3-methyl-2-oxo-2,3-dihydro-1H-benzo[d]imidazol-1-yl)piperidine-2,6-dione], the inhibition at 0.01 µM on P300 (setting [1]) is 20 to 50%. Further, in the assay with LNCaP cells, the pIC50 is 6.61.

In the case of `CNC(=O)N1CCc2c(c(N3CCCc4cc(-c5cnn(C)c5)c(C(F)F)cc43)nn2C2CCN(C(=O)CCCCCCNc3ccc4c(c3)n(C)c(=O)n4C3CCC(=O)NC3=O)CC2)C1` (stereo not drawn) [P-129, 3-(7-(difluoromethyl)-6-(1-methyl-1H-pyrazol-4-yl)-3,4-dihydroquinolin-1(2H)-yl)-1-(1-(7-((1-(2,6-dioxopiperidin-3-yl)-3-methyl-2-oxo-2,3-dihydro-1H-benzo[d]imidazol-5-yl)amino)heptanoyl)piperidin-4-yl)-N-methyl-1,4,6,7-tetrahydro-5H-pyrazolo[4,3-c]pyridine-5-carboxamide], the inhibition at 0.01 µM on P300 (setting [1]) is > 80%. The same compound had a pIC50 in the assay with LNCaP cells of 9.70.

In the case of `CC(=O)N1CCc2c(c(N3CCCc4cc(-c5cnn(C)c5)c(C(F)F)cc43)nn2C2CCN(C(=O)CCCCCCNc3ccc4c(c3)n(C)c(=O)n4C3CCC(=O)NC3=O)CC2)C1` (stereo not drawn) [P-130, 3-(5-((7-(4-(5-acetyl-3-(7-(difluoromethyl)-6-(1-methyl-1H-pyrazol-4-yl)-3,4-dihydroquinolin-1(2H)-yl)-4,5,6,7-tetrahydro-1H-pyrazolo[4,3-c]pyridin-1-yl)piperidin-1-yl)-7-oxoheptyl)amino)-3-methyl-2-oxo-2,3-dihydro-1H-benzo[d]imidazol-1-yl)piperidine-2,6-dione], the inhibition at 0.01 µM on P300 (setting [1]) is > 80%. In addition, the pIC50 in the assay on LNCaP cells is 9.30.

`CC(=O)N1CCc2c(c(N3CCCc4cc(-c5cnn(C)c5)c(C(F)F)cc43)nn2C2CCN(C(=O)CN3CCC(CCc4cccc5c4C(=O)N(C4CCC(=O)NC4=O)C5=O)CC3)CC2)C1` (stereo not drawn) [P-131, 4-(2-(1-(2-(4-(5-acetyl-3-(7-(difluoromethyl)-6-(1-methyl-1H-pyrazol-4-yl)-3,4-dihydroquinolin-1(2H)-yl)-4,5,6,7-tetrahydro-1H-pyrazolo[4,3-c]pyridin-1-yl)piperidin-1-yl)-2-oxoethyl)piperidin-4-yl)ethyl)-2-(2,6-dioxopiperidin-3-yl)isoindoline-1,3-dione]: on P300 (setting [1]), the inhibition at 0.01 µM was > 80%. This compound gave a pIC50 with LNCaP cells of 7.85.

As to `CC(=O)N1CCc2c(c(N3CCCc4cc(-c5cnn(C)c5)c(C(F)F)cc43)nn2C2CCN(CCCCCCCc3cccc4c3C(=O)N(C3CCC(=O)NC3=O)C4=O)CC2)C1` (stereo not drawn) [P-132, 4-(7-(4-(5-Acetyl-3-(7-(difluoromethyl)-6-(1-methyl-1H-pyrazol-4-yl)-3,4-dihydroquinolin-1(2H)-yl)-4,5,6,7-tetrahydro-1H-pyrazolo[4,3-c]pyridin-1-yl)piperidin-1-yl)heptyl)-2-(2,6-dioxopiperidin-3-yl)isoindoline-1,3-dione], the inhibition at 0.01 µM on P300 (setting [1]) was 20 to 50%. Further, the pIC50 in the assay on LNCaP cells is 7.77.

`CC(=O)N1CCc2c(c(N3CCCc4cc(-c5cnn(CC(=O)NCCCCCCCNc6ccc7c(c6)C(=O)N(C6CCC(=O)NC6=O)C7=O)c5)c(C(F)F)cc43)nn2C2CCOCC2)C1` (stereo not drawn) [P-133, 2-(4-(1-(5-acetyl-1-(tetrahydro-2H-pyran-4-yl)-4,5,6,7-tetrahydro-1H-pyrazolo[4,3-c]pyridin-3-yl)-7-(difluoromethyl)-1,2,3,4-tetrahydroquinolin-6-yl)-1H-pyrazol-1-yl)-N-(7-((2-(2,6-dioxopiperidin-3-yl)-1,3-dioxoisoindolin-5-yl)amino)heptyl)acetamide]: the inhibition at 0.01 µM at P300 (setting [1]) is > 80%. Moreover, the negative-log IC50 (pIC50) with LNCaP cells is 8.40.

With `CC(=O)N1CCc2c(c(N3CCCc4cc(-c5cnn(C)c5)c(C(F)F)cc43)nn2C2CCN(C(=O)CCCCCCCn3c(=O)n(C4CCC(=O)NC4=O)c4ccccc43)CC2)C1` (stereo not drawn) [P-135, 3-(3-(8-(4-(5-acetyl-3-(7-(difluoromethyl)-6-(1-methyl-1H-pyrazol-4-yl)-3,4-dihydroquinolin-1(2H)-yl)-4,5,6,7-tetrahydro-1H-pyrazolo[4,3-c]pyridin-1-yl)piperidin-1-yl)-8-oxooctyl)-2-oxo-2,3-dihydro-1H-benzo[d]imidazol-1-yl)piperidine-2,6-dione], at P300, the inhibition at 0.01 µM was > 80%. The compound also showed a negative logarithm of the IC50 (pIC50) with LNCaP cells of 9.15.

Take `CC(=O)N1CCc2c(c(N3CCCc4cc(-c5cnn(C)c5)c(C(F)F)cc43)nn2C2CCN(C(=O)CN3CCOC(CNc4cccc5c4C(=O)N(C4CCC(=O)NC4=O)C5=O)C3)CC2)C1` (stereo not drawn) [P-141, 4-(((4-(2-(4-(5-Acetyl-3-(7-(difluoromethyl)-6-(1-methyl-1H-pyrazol-4-yl)-3,4-dihydroquinolin-1(2H)-yl)-4,5,6,7-tetrahydro-1H-pyrazolo[4,3-c]pyridin-1-yl)piperidin-1-yl)-2-oxoethyl)morpholin-2-yl)methyl)amino)-2-(2,6-dioxopiperidin-3-yl)isoindoline-1,3-dione]: the inhibition at 0.01 µM at P300 (setting [1]) lay within 50 to 80%. The compound also showed a pIC50 in the assay on LNCaP cells of 6.81.

For `CC(=O)N1CCc2c(c(N3CCCc4cc(-c5cnn(C)c5)c(C(F)F)cc43)nn2C2CCN(CCN3CCOC(CNc4cccc5c4C(=O)N(C4CCC(=O)NC4=O)C5=O)C3)CC2)C1` (stereo not drawn) [P-142], the inhibition at 0.01 µM at P300 (setting [1]) is > 80%. This compound had a pIC50 with LNCaP cells of 9.52.

As for `CC(=O)N1CCc2c(c(N3CCCc4cc(-c5cnn(C)c5)c(C(F)F)cc43)nn2C2CCN(CCN3CCC(CNc4cccc5c4C(=O)N(C4CCC(=O)NC4=O)C5=O)CC3)CC2)C1` (stereo not drawn) [P-143, 4-(((1-(2-(4-(5-acetyl-3-(7-(difluoromethyl)-6-(1-methyl-1H-pyrazol-4-yl)-3,4-dihydroquinolin-1(2H)-yl)-4,5,6,7-tetrahydro-1H-pyrazolo[4,3-c]pyridin-1-yl)piperidin-1-yl)ethyl)piperidin-4-yl)methyl)amino)-2-(2,6-dioxopiperidin-3-yl)isoindoline-1,3-dione], the inhibition at 0.01 µM at P300 was > 80%. In the assay on LNCaP cells, this compound had a pIC50 of 8.82.

`CC(=O)N1CCc2c(c(N3CCCc4cc(-c5cnn(C)c5)c(C(F)F)cc43)nn2C2CCN(C(=O)CCCC3CN(c4cccc5c4C(=O)N(C4CCC(=O)NC4=O)C5=O)C3)CC2)C1` (stereo not drawn) [P-146, 4-(3-(4-(4-(5-acetyl-3-(7-(difluoromethyl)-6-(1-methyl-1H-pyrazol-4-yl)-3,4-dihydroquinolin-1(2H)-yl)-4,5,6,7-tetrahydro-1H-pyrazolo[4,3-c]pyridin-1-yl)piperidin-1-yl)-4-oxobutyl)azetidin-1-yl)-2-(2,6-dioxopiperidin-3-yl)isoindoline-1,3-dione]: the inhibition at 0.01 µM on P300 (setting [1]) is > 80%. Further, in the assay with LNCaP cells, the pIC50 is 8.70.

Consider `CC(=O)N1CCc2c(c(N3CCCc4cc(-c5cnn(C)c5)c(C(F)F)cc43)nn2C2CCN(C(=O)CN3CCC(CCCc4cccc5c4C(=O)N(C4CCC(=O)NC4=O)C5=O)CC3)CC2)C1` (stereo not drawn) [P-147, 4-(3-(1-(2-(4-(5-acetyl-3-(7-(difluoromethyl)-6-(1-methyl-1H-pyrazol-4-yl)-3,4-dihydroquinolin-1(2H)-yl)-4,5,6,7-tetrahydro-1H-pyrazolo[4,3-c]pyridin-1-yl)piperidin-1-yl)-2-oxoethyl)piperidin-4-yl)propyl)-2-(2,6-dioxopiperidin-3-yl)isoindoline-1,3-dione], for which the inhibition at 0.01 µM on P300 (setting [1]) is > 80%. Besides, the pIC50 with LNCaP cells was 8.85.

`CC(=O)N1CCc2c(c(N3CCCc4cc(-c5cnn(C)c5)c(C(F)F)cc43)nn2C2CCN(C(=O)CCN3CCC(CCc4cccc5c4C(=O)N(C4CCC(=O)NC4=O)C5=O)CC3)CC2)C1` (stereo not drawn) [P-148, 4-(2-(1-(3-(4-(5-acetyl-3-(7-(difluoromethyl)-6-(1-methyl-1H-pyrazol-4-yl)-3,4-dihydroquinolin-1(2H)-yl)-4,5,6,7-tetrahydro-1H-pyrazolo[4,3-c]pyridin-1-yl)piperidin-1-yl)-3-oxopropyl)piperidin-4-yl)ethyl)-2-(2,6-dioxopiperidin-3-yl)isoindoline-1,3-dione]: the inhibition at 0.01 µM at P300 (setting [1]) was > 80%. The pIC50 with LNCaP cells was 7.13.

`CC(=O)N1CCc2c(c(N3CCCc4cc(-c5cnn(C)c5)c(C(F)F)cc43)nn2C2CCN(CC3CCN(CCCc4cccc5c4C(=O)N(C4CCC(=O)NC4=O)C5=O)CC3)CC2)C1` (stereo not drawn) [P-149, 4-(3-(4-((4-(5-acetyl-3-(7-(difluoromethyl)-6-(1-methyl-1H-pyrazol-4-yl)-3,4-dihydroquinolin-1(2H)-yl)-4,5,6,7-tetrahydro-1H-pyrazolo[4,3-c]pyridin-1-yl)piperidin-1-yl)methyl)piperidin-1-yl)propyl)-2-(2,6-dioxopiperidin-3-yl)isoindoline-1,3-dione]: the inhibition at 0.01 µM on P300 (setting [1]) is > 80%. The pIC50 in the assay with LNCaP cells was 7.94.

What is called pIC50 is −log10 of the IC50, conventionally taken in molar units.
